# Measured values reported in patent US5681966A, “Compounds and methods for the treatment of cardiovascular, inflammatory and immune disorders” (Cytomed, Inc., priority 1995, dated 1997).
# Assays:
# 5-lipoxygenase [1] = biological target: T1, 5-lipoxygenase (Rattus norvegicus, UniProt P12527); test: Inhibition of soluble 5-lipoxygenase in RBL-1 cell extract (cytosol 5-lipoxygenase of rat basophile leukemia cells; RBL); type: biochemical; conditions: for activity in 5-lipoxygenase assay: qualitative; for IC50: RBL-1 cell extract
# T1 construct: The supernatant solution (cytosol fraction) containing 5-lipoxygenase was stored; endogenous in cells; host or cells: RBL-1 rat basophilic leukemia cells, 105,000 x g supernatant (cytosol)
# T1 sequence (P12527 1-673): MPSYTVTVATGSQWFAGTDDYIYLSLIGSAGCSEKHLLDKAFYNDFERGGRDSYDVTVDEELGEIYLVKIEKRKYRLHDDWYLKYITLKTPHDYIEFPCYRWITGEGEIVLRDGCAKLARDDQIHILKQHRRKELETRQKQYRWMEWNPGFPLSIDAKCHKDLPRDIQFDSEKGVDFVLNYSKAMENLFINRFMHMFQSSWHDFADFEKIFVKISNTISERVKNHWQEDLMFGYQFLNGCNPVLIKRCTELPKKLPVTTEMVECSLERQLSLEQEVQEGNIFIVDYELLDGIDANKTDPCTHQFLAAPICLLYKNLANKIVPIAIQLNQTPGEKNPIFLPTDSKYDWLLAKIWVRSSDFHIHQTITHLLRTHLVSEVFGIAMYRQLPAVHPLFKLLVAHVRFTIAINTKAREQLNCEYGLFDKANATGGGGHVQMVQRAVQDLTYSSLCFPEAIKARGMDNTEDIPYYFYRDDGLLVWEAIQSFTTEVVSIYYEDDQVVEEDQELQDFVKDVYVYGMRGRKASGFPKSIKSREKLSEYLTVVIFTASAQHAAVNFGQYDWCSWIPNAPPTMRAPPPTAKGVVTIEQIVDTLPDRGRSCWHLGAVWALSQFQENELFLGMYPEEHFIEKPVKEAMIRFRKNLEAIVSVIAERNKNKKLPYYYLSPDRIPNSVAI
# Method: Effect of Compounds on Cytosol 5-Lipoxygenase of Rat Basophile Leukemia Cells
# Washed rat RBL cells (4×108) were suspended in 20 ml of […] potassium phosphate buffer at pH 7.4 containing 10% ethylene glycol/1 mM EDTA (Buffer A). The cell suspension was sonicated at 20 KHz for 30 seconds, and the sonicate was centrifuged at 10,000 × g for 10 minutes, followed by further centrifugation at 105,000 × g for 1 hr. The supernatant solution (cytosol fraction) containing 5-lipoxygenase was stored at -70° C. Protein concentration was determined according to the procedure of Bradford (Bradford Dye Reagent) with bovine serum albumin as a standard.
# For routine assay of 5-lipoxygenase the mixture contained 50 mM potassium phosphate buffer at pH 7.4, 2 mM CaCl2, 2 mM ATP, […] arachidonic acid (0.1 Ci) and enzyme ([…] of protein) in a final volume of […]. The reaction was carried out at 24° C. for 3 minutes. The mixture was extracted with 0.2 ml of an ice-cold mixture of ethyl ether:methanol: 0.2M citric acid (30:4:1). The extract was subjected to thin-layer chromatography at -10° C. in a solvent system of petroleum ether:ethyl ether:acetic acid (15:85:0.1). The silica gel zones corresponding to authentic arachidonic acid and its metabolites were scraped into scintillation vials for counting. The enzyme activity was expressed in terms of the amount of arachidonic acid oxygenated for 3 minutes.
# Table 3 provides data for the inhibition of soluble 5-lipoxygenase in RBL-1 cell extract by racemic compound 202, as well as its enantiomers, compounds […], 234, and 236.
# PAF receptor = conditions: cited from earlier work; for PAF receptor antagonism / inhibition of PAF binding: qualitative
# platelets = conditions: active concentration; cited from earlier work
# [2] = cited from earlier work
# 5-lipoxygenase [3] = conditions: qualitative; cited from earlier work
# [4] = test system: PAF-induced rat cutaneous vascular permeability; conditions: 30 mg/kg body weight; orally active; cited from earlier work
# [5] = test system: 5-lipoxygenase (ex vivo LTB4); test: Ex vivo whole blood 5-lipoxygenase evaluation (ex vivo LTB4); type: in vivo; conditions: rat, 10 mg/kg po, 180'
# Method: Ex-vivo Mouse and Rat Whole Blood 5-lipoxygenase Evaluation
# CD-1 female mice, weighing 18-25 grams, and CD female rates, weighing 150-230 grams, were obtained from Charles River Labs. Compounds were dissolved in 0.5% DMSO in 0.9% NaCl for administration in mice (0.5 mg/ml) and in an alcohol Vehicle (2% benzyl alcohol, 1% ethanol, 40% PEG 300 10% propylene glycol, 47% of 5% dextrose plus 3.5% pluronic F-68 in DiH2 O) for use in rates (5 mg/ml). […] Heparinized whole blood (0.3 ml) was added into 1.5 ml Eppendorf centrifuge tub containing […] of 2 mM calcium ionophore A23187 (the final concentration of A23187 was […]). The sample was incubated for 30 minutes in a water bath of 37° C., and then centrifuged for 2 minutes. The plasma was diluted (×120) and assayed for LTB4 using EIA.
# Table 3 provides data for the ex-vivo mouse and rat whole blood 5-lipoxygenase values on administration of racemic compound 202, as well as its enantiomers, compounds 216, 217, 234, and 236.
compound,measurement,setting,value
"NC(=O)N(O)CCCO[C@@H]1CC[C@H](c2ccc(F)cc2)O1 (relative stereo) [Compound 15, 2-(4-fluorophenyl)-5-(3-hydroxyureidylpropoxy) tetrahydrofuran]",activity in 5-lipoxygenase assay,5-lipoxygenase [1],showed activity in this assay
C=CCC1=C[C@@]2(OC)C(=CC1=O)O[C@H](c1ccc(OC)c(OC)c1)[C@H]2C [kadsurenone],PAF receptor antagonism / inhibition of PAF binding,PAF receptor,"potent, specific and competitive inhibitor of PAF activity at the receptor level"
C[C@@H](C#C[C@H]1CC[C@H](c2ccc(F)cc2)O1)N(O)C(N)=O,IC50,5-lipoxygenase [1],2000 nM
"CN(O)C(=O)NCCCO[C@@H]1CC[C@H](c2ccc(F)cc2)O1 (relative stereo) [Compound 11, 2-(4-fluorophenyl)-5-[3-(N'-methyl-N'-hydroxyureidyl)propoxy] tetrahydrofuran]",activity in 5-lipoxygenase assay,5-lipoxygenase [1],showed activity in this assay
1-O-alkyl-2-acetyl-sn-glycerol-3-phosphorylcholine [PAF],potency (active at),platelets,10^-12 to 10^-9 M
same,plasma half life,[2],2 to 4 min
"NC(=O)N(O)CCCO[C@@H]1CC[C@@H](c2ccc(F)cc2)O1 (relative stereo) [Compound 14, 2-(4-fluorophenyl)-5-(3-hydroxyureidylpropoxy) tetrahydrofuran]",activity in 5-lipoxygenase assay,5-lipoxygenase [1],showed activity in this assay
"CCCCCCCCCCCCCCCCCCNC(=O)OCC(COP(=O)([O-])OCC[n+]1ccsc1)OC (racemic) [CV-3988, rac-3-(N-n-octadecyl-carbamoyloxy-ω-methoxypropyl-2-thiazolioethyl phosphate]",PAF receptor antagonism / inhibition of PAF binding,PAF receptor,PAF receptor antagonist properties
C[C@H](C#C[C@@H]1CC[C@@H](c2ccc(F)cc2)O1)N(O)C(N)=O,IC50,5-lipoxygenase [1],3800 nM
"CCCOc1c(OC)cc([C@@H]2CC[C@@H](c3cc(OC)c(OC)c(OC)c3)O2)cc1S(C)(=O)=O (relative stereo) [L-659,989, trans-2-(3-methoxy-4-propoxyphenyl-5-methylsulfonyl)-5-(3,4,5-trimethoxyphenyl)tetrahydrofuran]",PAF receptor antagonism / inhibition of PAF binding,PAF receptor,"orally active, potent, competitive PAF receptor antagonist"
same,"equilibrium inhibition constant relative to trans-L-652,731","PAF receptor; vs trans-L-652,731",10 times
"COc1cc([C@H]2CC[C@H](c3cc(OC)c(OC)c(OC)c3)S2)cc(OC)c1OC (relative stereo) [L-653,150, trans-2,5-bis-(3,4,5-trimethoxyphenyl)tetrahydrothiophene]",PAF receptor antagonism / inhibition of PAF binding,PAF receptor,potent PAF antagonist
same,effect on 5-lipoxygenase,5-lipoxygenase [3],moderate inhibitor of 5-lipoxygenase
"CN(O)C(=O)NCCCO[C@@H]1CC[C@@H](c2ccc(F)cc2)O1 (relative stereo) [Compound 9, 2-(4-fluorophenyl)-5-[3-(N'-methyl-N'-hydroxyureidyl)propoxy] tetrahydrofuran]",activity in 5-lipoxygenase assay,5-lipoxygenase [1],showed activity in this assay
C[C@@H](C#C[C@@H]1CC[C@@H](c2ccc(F)cc2)O1)N(O)C(N)=O,IC50,5-lipoxygenase [1],3510 nM
CC(C#C[C@@H]1CC[C@@H](c2ccc(F)cc2)O1)N(O)C(N)=O (relative stereo),IC50,5-lipoxygenase [1],2800 nM
same,inhibition at 1.6 µM,"5-lipoxygenase [1]; dose 1.6 uM, read-out: RBL % inh.",20%
C[C@H](C#C[C@H]1CC[C@H](c2ccc(F)cc2)O1)N(O)C(N)=O,IC50,5-lipoxygenase [1],3100 nM
"COc1cc([C@H]2CC[C@H](c3cc(OC)c(OC)c(OC)c3)O2)cc(OC)c1OC (relative stereo) [L-652,731, trans-2,5-bis-(3,4,5-trimethoxyphenyl) tetrahydrofuran]",PAF receptor antagonism / inhibition of PAF binding,PAF receptor,inhibits the binding of tritiated PAF to PAF receptor sites
same,"relative potency, trans versus cis","PAF receptor; trans-L-652,731 vs cis-L-652,731",approximately 1000 times
same,inhibition of PAF-induced cutaneous vascular permeability,[4],inhibit PAF-induced rat cutaneous vascular permeability
same,effect on 5-lipoxygenase,5-lipoxygenase [3],no effect on the enzyme 5-lipoxygenase
NC(=O)N(O)CCCC[C@@H]1CC[C@@H](c2ccc(F)cc2)O1,IC50,5-lipoxygenase [1],1100 nM
NC(=O)N(O)CCCCC1CCC(c2ccc(F)cc2)O1 (stereo not shown),IC50,5-lipoxygenase [1],618 nM
same,"ex vivo LTB4 % (inhibition), last sub-column",[5],83%
